Measurements reported in US20150065524A1, “KINASE INHIBITOR POLYMORPHS” (Intellikine LLC, priority 2011, published 2015).
Values belong to the compound of their own block, whether it stands above or below them.

Columns and labels:
Assay type in all cases: physicochemical
[1] = Stability testing: storage at 40° C./75% RH or 25° C./97% RH, reanalysis by XRPD; details: for Stability at 40° C./75% RH: salts of Formula I, salt screening; for Solid form after storage at 40° C./75% relative humidity: 8 days storage; for Stability at 40° C./75% RH, reanalysis by XRPD: stored at 40° C./75% RH, after 7 days, 21 days and 35 days; for Solid form by XRPD after storage at 40° C./75% RH: 7 days, samples of entries 38, 39, 41, 42
Protocol: A sample of J00439 was stored at 40° C./75% RH. […] Thus this solid form (which will be referred to as Form A) was stable to accelerated stability testing conditions. Note that some variations in XRPD peak intensity were observed over time.
Samples of entries 38, 39, 41, and 42 were stored at 40° C./75% RH. […]

Heating to about 100° C. = experiment: Heating to about 100° C.
[2] = Stability testing: storage at 40° C./75% RH or 25° C./97% RH, reanalysis by XRPD; details: 8 days storage
[3] = Gravimetric Vapour Sorption (GVS); details: for Solid form by XRPD after the GVS experiment: material recovered after GVS; for Weight lost during the first sorption cycle (GVS): from 40 to 90% RH
Excerpt: There was no hysteresis. The material is non-hygroscopic.
The sample was non-hygroscopic, with only 0.16% weight gain in the first sorption cycle.

[4] = Drying of the solids under vacuum, reanalysis by XRPD; details: for Solid form after drying: vacuum oven at 40° C. overnight, XRPD and 1H NMR
Protocol: A sample of each solid was dried in a vacuum oven at 40° C. overnight, then the samples were reanalysed by XRPD and ^1H NMR.
Approximately 20 mg of compound of Formula I (Form A) were weighed into vials, and 150 microliters of solvent system were added. The vials were agitated at 50° C., 5° C., or cycled between room temperature and 50° C. for 4 to 5 days. Solids were isolated by filtration and characterized by XRPD and thermal analysis. From acetone/5% water at 5° C., a hydrate was isolated (see FIGS. 15 and 16). […] From dimethylacetamide (DMA) cycled between room temperature and 50° C. for 5 days, a solvate was isolated (see FIGS. 17 and 18). […] Inclusion of 10% or more water with DMA prevented formation of DMA solvate.

- Solid form after storage at 40° C./75% relative humidity [1]: converted to Form A
- Solid form after heating (Heating to about 100° C.): converted to Form A
- Solid form after storage at 25° C./97% relative humidity [2]: converted to Form A
Compound: CC(C)n1nc(-c2ccc3oc(N)nc3c2)c2c(N)ncnc21 [DMA solvate]

- Stability at 40° C./75% RH, reanalysis by XRPD [1]: stable
- Stability at 40° C./75% RH, reanalysis by XRPD ([1]; listed as J00439): still pattern A
- Hygroscopicity by GVS [3]: non-hygroscopic
- Solid form by XRPD after the GVS experiment [3]: still pattern A
- GVS weight change over the whole experiment ([3]; whole GVS experiment): 0.1%
Compound: CC(C)n1nc(-c2ccc3oc(N)nc3c2)c2c(N)ncnc21 [Form A, 5-(4-amino-1-isopropyl-1H-pyrazolo[3,4-d]pyrimidin-3-yl)benzo[d]oxazol-2-Amine]

- Solid form by XRPD after storage at 40° C./75% RH [1]: turned into Form A
- Weight lost during the first sorption cycle (GVS) ([3]; first sorption cycle): 28 % wt
- Solid form by XRPD after the GVS experiment [3]: desolvated to Form A
- Solid form after drying [4]: only partially desolvated
Compound: CC(C)n1nc(-c2ccc3oc(N)nc3c2)c2c(N)ncnc21 [Form B]

- Solid form by XRPD after storage at 40° C./75% RH [1]: still of Form C
- Hygroscopicity by GVS [3]: non-hygroscopic
- Weight loss on desorption (GVS) ([3]; between 90 and 0% RH): 0.38%
- Weight gain in the first sorption cycle (GVS) ([3]; first sorption cycle): 0.16%
- Solid form by XRPD after the GVS experiment [3]: still Form C
- Solid form after drying [4]: stable on drying
Compound: CC(C)n1nc(-c2ccc3oc(N)nc3c2)c2c(N)ncnc21 [Form C]

- Solid form by XRPD after storage at 40° C./75% RH [1]: turned into Form A
- Weight lost during the first sorption cycle (GVS) ([3]; first sorption cycle): 28 % wt
- Solid form by XRPD after the GVS experiment [3]: turned to Form A
- Solid form after drying [4]: desolvated to Form A
Compound: CC(C)n1nc(-c2ccc3oc(N)nc3c2)c2c(N)ncnc21 [Form E]

- Solid form after storage at 40° C./75% relative humidity [1]: converted to Form A
- Solid form by XRPD after the GVS experiment [3]: converted to Form A
- Solid form after vacuum drying ([4]; vacuum drying): converted to Form A
- Solid form after heating (Heating to about 100° C.): converted to Form A
- Solid form after storage at 25° C./97% relative humidity [2]: converted to Form A
Compound: CC(C)n1nc(-c2ccc3oc(N)nc3c2)c2c(N)ncnc21 [hydrate]

- Stability at 40° C./75% RH [1]: Deliquescent
Compound: Ethane sulfonic acid

Second part, the compound before the results:

Compound: 1,2-Ethane disulfonic acid
- Stability at 40° C./75% RH [1]: Stable for 7 days

Compound: Cc1ccc(S(=O)(=O)O)cc1 [p-Toluene sulfonic acid]
- Stability at 40° C./75% RH [1]: Changes pattern after 3 days,

Compound: Maleic acid
- Stability at 40° C./75% RH [1]: Stable for 7 days

Compound: Methane sulfonic acid
- Stability at 40° C./75% RH [1]: Deliquescent
